Measurements as given in PubChem BioAssay AID330 (DTP/NCI, 2004).
Where “and” joins values, the source holds several entries; their conditions need not be identical. Identical values can stand only once. Toxic doses and inconclusive results are not listed. Square brackets hold non-standard residues; d marks the D form. Peptide text beside a SMILES is read from it. * marks the point of attachment. Cbz = O=C(OCc1ccccc1)*; Nva = CCC[CH](N)C(=O)O

Test system: P388 leukemia ip, CD2F1 mice, survival T/C
Test: NCI In Vivo Anticancer Drug Screen. Data for tumor model P388 Leukemia (intraperitoneal) in CD2F1 (CDF1) mice
Conditions: endpoint: median survival time, higher = longer survival
Procedure, shortened: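 Mice carrying the transplanted tumor received test compound or vehicle. Survival was recorded in each group, and the value is the treated-group measurement divided by that of the vehicle-treated control group.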

[1] = dose: 50.0 mg/kg/injection, schedule: Q01DX009 (ip), vehicle: saline with Tween-80
[2] = dose: 100.0 mg/kg/injection, schedule: Q01DX009 (ip), vehicle: saline with Tween-80
[3] = dose: 50.0 mg/kg/injection, schedule: Q01DX005 (ip), vehicle: saline
[4] = dose: 100.0 mg/kg/injection, schedule: Q01DX005 (ip), vehicle: saline
[5] = dose: 200.0 mg/kg/injection, schedule: Q01DX005 (ip), vehicle: saline
[6] = dose: 7.5 mg/kg/injection, schedule: Q01DX005 (ip), vehicle: saline with Tween-80
[7] = dose: 15.0 mg/kg/injection, schedule: Q01DX005 (ip), vehicle: saline with Tween-80
[8] = dose: 30.0 mg/kg/injection, schedule: Q01DX005 (ip), vehicle: saline with Tween-80
[9] = dose: 50.0 mg/kg/injection, schedule: Q01DX005 (ip), vehicle: saline with Tween-80
[10] = dose: 100.0 mg/kg/injection, schedule: Q01DX005 (ip), vehicle: saline with Tween-80
[11] = dose: 200.0 mg/kg/injection, schedule: Q01DX005 (ip), vehicle: saline with Tween-80
[12] = dose: 60.0 mg/kg/injection, schedule: Q01DX005 (ip), vehicle: saline with Tween-80
[13] = dose: 120.0 mg/kg/injection, schedule: Q01DX005 (ip), vehicle: saline with Tween-80
[14] = dose: 240.0 mg/kg/injection, schedule: Q01DX005 (ip), vehicle: saline with Tween-80
[15] = dose: 12.5 mg/kg/injection, schedule: Q01DX009 (ip), vehicle: saline with Tween-80
[16] = dose: 25.0 mg/kg/injection, schedule: Q01DX005 (ip), vehicle: saline with Tween-80
[17] = dose: 25.0 mg/kg/injection, schedule: Q01DX009 (ip), vehicle: saline with Tween-80

SMILES: C/C(=N/N=C(N)N)c1cnc(N/N=C(\C)c2cnc(NN)nc2C)nc1C
- T/C (dose: 7.5 mg/kg/injection, schedule: Q01DX005 (ip), vehicle: saline): 103 % of control
- T/C (dose: 15.0 mg/kg/injection, schedule: Q01DX005 (ip), vehicle: saline): 94 % of control
- T/C (dose: 30.0 mg/kg/injection, schedule: Q01DX005 (ip), vehicle: saline): 97 % of control

SMILES: Cc1ccc2ccc(CC(O)(c3ccccc3)c3ccccc3)nc2c1
- T/C [1]: 100 % of control
- T/C [2]: 88 % of control

SMILES: O=C(Nn1c(=O)[nH]c2ccccc2c1=O)c1ccc(Cl)cc1
- T/C (dose: 60.0 mg/kg/injection, schedule: Q01DX005 (ip), vehicle: Klucel (hydroxypropylcellulose) (HPC)): 98 % of control
- T/C (dose: 120.0 mg/kg/injection, schedule: Q01DX005 (ip), vehicle: Klucel (hydroxypropylcellulose) (HPC)): 93 % of control
- T/C (dose: 240.0 mg/kg/injection, schedule: Q01DX005 (ip), vehicle: Klucel (hydroxypropylcellulose) (HPC)): 90 % of control

SMILES: CC(C)C(=O)NCCCCCN1CCCCC1
- T/C [3]: 106 % of control
- T/C [4]: 99 % of control
- T/C [5]: 99 % of control

SMILES: COc1ccc(-c2cnnn2Cc2ccco2)cc1
- T/C (dose: 100.0 mg/kg/injection, schedule: Q04DX002 (ip), vehicle: Klucel (hydroxypropylcellulose) (HPC)): 105 % of control
- T/C (dose: 200.0 mg/kg/injection, schedule: Q04DX002 (ip), vehicle: Klucel (hydroxypropylcellulose) (HPC)): 100 % of control
- T/C (dose: 400.0 mg/kg/injection, schedule: Q04DX002 (ip), vehicle: Klucel (hydroxypropylcellulose) (HPC)): 102 % of control

SMILES: CC(=O)NC1=C(O)C2C(c3ccc(Cl)cc3)C(C#N)C(=O)N2C1=O (stereo not given)
- T/C (dose: 100.0 mg/kg/injection, schedule: Q01DX001 (ip), vehicle: saline): 100 % of control
- T/C (dose: 200.0 mg/kg/injection, schedule: Q01DX001 (ip), vehicle: saline): 103 % of control
- T/C (dose: 400.0 mg/kg/injection, schedule: Q01DX001 (ip), vehicle: saline): 98 % of control

SMILES: CCCC(NC(=O)OCc1ccccc1)C(=O)NC(Cc1ccccc1)C(=O)O (stereo not given) (Cbz-[Nva]-Phe-OH; configuration not given here)
- T/C (dose: 50.0 mg/kg/injection, schedule: Q01DX005 (ip), vehicle: Klucel (hydroxypropylcellulose) (HPC)): 108 % of control
- T/C (dose: 100.0 mg/kg/injection, schedule: Q01DX005 (ip), vehicle: Klucel (hydroxypropylcellulose) (HPC)): 106 % of control
- T/C (dose: 200.0 mg/kg/injection, schedule: Q01DX005 (ip), vehicle: Klucel (hydroxypropylcellulose) (HPC)): 100 % of control

SMILES: O=C1/C(=C\c2ccccc2)C2OCC=C3CN4CCC56c7ccccc7N1C5C2C3CC46 (stereo not given)
- T/C [6]: 106 % of control
- T/C [7]: 108 % of control
- T/C [8]: 99 % of control

SMILES: CCC[CH2][Sn]([CH3])([CH2]CC[N+](C)(C)C)[O]C(C)=O (stereo not given)
- T/C (dose: 12.5 mg/kg/injection, schedule: Q01DX009 (ip), vehicle: saline): 105 % of control
- T/C (dose: 25.0 mg/kg/injection, schedule: Q01DX009 (ip), vehicle: saline): 106 % of control
- T/C (dose: 50.0 mg/kg/injection, schedule: Q01DX009 (ip), vehicle: saline): 100 % of control and 115 % of control

SMILES: CS(=O)(=O)OCCCCCCCCCCCN1CCOCC1
- T/C [9]: 98 % of control
- T/C [10]: 94 % of control

SMILES: CCOC(=O)c1sc(SC)c2c(N)nc(C)nc12
- T/C [9]: 98 % of control
- T/C [10]: 94 % of control
- T/C [11]: 95 % of control

SMILES: COc1cc([C@@H]2c3cc4c(cc3C[C@@H]3COC(=O)[C@H]32)OCO4)cc(OC)c1OC
- T/C (dose: 12.5 mg/kg/injection, schedule: Q04DX002 (ip), vehicle: saline with Tween-80): 86 % of control
- T/C (dose: 25.0 mg/kg/injection, schedule: Q04DX002 (ip), vehicle: saline with Tween-80): 96 % of control
- T/C (dose: 50.0 mg/kg/injection, schedule: Q04DX002 (ip), vehicle: saline with Tween-80): 106 % of control

SMILES: CC(=O)Nc1ccc(-c2csc(Nc3ccnc4cc(Cl)ccc34)n2)cc1
- T/C [9]: 93 % of control and 95 % of control
- T/C [10]: 92 % of control
- T/C [11]: 90 % of control and 92 % of control

SMILES: CN(C)CCSc1nc2ccccc2s1
- T/C (dose: 60.0 mg/kg/injection, schedule: Q01DX005 (ip), vehicle: saline): 101 % of control
- T/C (dose: 120.0 mg/kg/injection, schedule: Q01DX005 (ip), vehicle: saline): 104 % of control

SMILES: Cc1nc(NC(=O)C(C)(C)C)sc1[N+](=O)[O-]
- T/C [1]: 101 % of control
- T/C [2]: 92 % of control
- T/C (dose: 200.0 mg/kg/injection, schedule: Q01DX009 (ip), vehicle: saline with Tween-80): 94 % of control

SMILES: COc1cc(C(=O)CC(=O)CCC(=O)Nc2ccc(Cl)cc2)ccc1O
- T/C [12]: 104 % of control
- T/C [13]: 103 % of control
- T/C [14]: 98 % of control

SMILES: CSC(=S)N/N=C(\C)c1cccc(C)n1
- T/C [6]: 100 % of control
- T/C [7]: 102 % of control
- T/C [8]: 105 % of control
- T/C [12]: 100 % of control
- T/C [13]: 87 % of control
- T/C [14]: 113 % of control

SMILES: COC(=O)CN(CCCl)P1(=O)OCCCN1CCCl (stereo not given)
- T/C [12]: 97 % of control
- T/C [13]: 108 % of control

SMILES: OCC1(O)OCC(O)C(O)C1O (stereo not given)
- T/C (dose: 100.0 mg/kg/injection, schedule: Q01DX009 (ip), vehicle: saline): 99 % of control
- T/C (dose: 200.0 mg/kg/injection, schedule: Q01DX009 (ip), vehicle: saline): 98 % of control
- T/C (dose: 400.0 mg/kg/injection, schedule: Q01DX009 (ip), vehicle: saline): 105 % of control

SMILES: Oc1[nH]c2ccccc2c1N=Nc1nnc(-c2ccccc2)c(-c2ccccc2)n1
- T/C [9]: 95 % of control
- T/C [10]: 107 % of control
- T/C [11]: 101 % of control

SMILES: O=[N+]([O-])c1ccc([I+]c2ccccc2)cc1
- T/C [15]: 154 % of control
- T/C [16]: 120 % of control and 124 % of control
- T/C [17]: 153 % of control
- T/C [1]: 153 % of control
- T/C [12]: 98 % of control
- T/C [10]: 88 % of control

SMILES: CCCC(=O)c1ccco1
- T/C (dose: 6.25 mg/kg/injection, schedule: Q01DX009 (ip), vehicle: saline with Tween-80): 88 % of control
- T/C [15]: 95 % of control
- T/C [17]: 95 % of control

SMILES: COC(=O)[C@]1(O)Cc2c(O)c3c(c(O)c2[C@@H](OC2CC(N)C(O)C(C)O2)C1)C(=O)c1c(OC)cccc1C3=O (stereo not given in full)
- T/C (dose: 1.56 mg/kg/injection, schedule: Q01DX009 (ip), vehicle: water): 110 % of control
- T/C (dose: 3.13 mg/kg/injection, schedule: Q01DX009 (ip), vehicle: water): 108 % of control
- T/C (dose: 6.25 mg/kg/injection, schedule: Q01DX009 (ip), vehicle: water): 109 % of control and 114 % of control
- T/C (dose: 12.5 mg/kg/injection, schedule: Q01DX009 (ip), vehicle: water): 116 % of control and 118 % of control
- T/C (dose: 25.0 mg/kg/injection, schedule: Q01DX009 (ip), vehicle: water): 116 % of control

SMILES: Nc1ccc(-c2csc(Nc3ccnc4cc(Cl)ccc34)n2)cc1
- T/C [9]: 99 % of control
- T/C [10]: 93 % of control
- T/C [11]: 88 % of control

SMILES: O/N=C1\CN2CCC1CC2
- T/C [3]: 110 % of control
- T/C [4]: 105 % of control

SMILES: O=C1C=C(Nc2ccccc2C(=O)O)C(=O)C=C1Nc1ccccc1C(=O)O
- T/C (dose: 50.0 mg/kg/injection, schedule: Q01DX009 (ip), vehicle: Klucel (hydroxypropylcellulose) (HPC)): 107 % of control
- T/C (dose: 100.0 mg/kg/injection, schedule: Q01DX009 (ip), vehicle: Klucel (hydroxypropylcellulose) (HPC)): 110 % of control
- T/C (dose: 200.0 mg/kg/injection, schedule: Q01DX009 (ip), vehicle: Klucel (hydroxypropylcellulose) (HPC)): 113 % of control

SMILES: O=S1(=O)O[C@H]2CCCC[C@H]2O1
- T/C (dose: 1.75 mg/kg/injection, schedule: Q01DX009 (ip), vehicle: Klucel (hydroxypropylcellulose) (HPC)): 100 % of control
- T/C (dose: 3.5 mg/kg/injection, schedule: Q01DX009 (ip), vehicle: Klucel (hydroxypropylcellulose) (HPC)): 98 % of control
- T/C (dose: 7.0 mg/kg/injection, schedule: Q01DX009 (ip), vehicle: Klucel (hydroxypropylcellulose) (HPC)): 101 % of control
- T/C (dose: 14.0 mg/kg/injection, schedule: Q01DX009 (ip), vehicle: Klucel (hydroxypropylcellulose) (HPC)): 98 % of control

SMILES: Cc1cccc2c1Oc1ccccc1C2NC(=O)c1ccccc1 (stereo not given)
- T/C (dose: 12.5 mg/kg/injection, schedule: Q01DX005 (ip), vehicle: saline with Tween-80): 86 % of control
- T/C [16]: 89 % of control
- T/C [9]: 86 % of control and 88 % of control
- T/C [11]: 87 % of control

SMILES: [O-][n+]1cnn2ccccc21
- T/C [12]: 100 % of control
- T/C [13]: 106 % of control
- T/C [14]: 102 % of control

SMILES: Nc1nnc2nc(CC(=O)/C=C/c3ccccc3)c(CC(=O)/C=C/c3ccccc3)nn12
- T/C [3]: 98 % of control
- T/C [4]: 97 % of control
- T/C [5]: 104 % of control
